What was measured:
[1] = tested on: MDA-MB-231, human breast cancer cells; assay: Proliferation assay MDA-MB-231 (crystal violet, 4 days); type: cell-based; settings: Homo sapiens, MDA-MB-231, 96 h, MDA-MB-231 cells, median, read-out: Prolif-MDA MB-231, IC50-[mol/l] (median)
Experimental: Human tumour cells were originally obtained from the American Type Culture Collection (ATCC), or from the Deutsche Sammlung von Mikroorganismen und Zellkulturen (DSMZ, German Collection of Microorganisms and Cell Cultures). Cultivated tumour cells (CAL-120, human breast adenocarcinoma cells, DSMZ ACC-459; MDA-MB-231, human breast cancer cells, ATCC HTB-26) were plated at a density of 4,000 cells/well in a 96-well multititer plate in 200 microL of their respective growth medium supplemented 10% fetal calf serum. After 24 hours, the cells of one plate (zero-point plate) were stained with crystal violet (see below), while the medium of the other plates was supplemented with the test substances in various concentrations (0 micromol/L, as well as in the range of 0.01-10 micromol/L; the final concentration of the solvent dimethyl sulfoxide was adjusted to 0.1%) using a Tecan HP D300 Digital Dispenser. The cells were incubated for 4 days in the presence of test substances. Cell proliferation was determined by staining the cells with crystal violet: the cells were fixed by adding 20 microL/measuring point of an 11% glutaric aldehyde solution for 15 minutes at room temperature. After three washing cycles of the fixed cells with water, the plates were dried at room temperature. The cells were stained by adding 100 microL/measuring point of a 0.1% crystal violet solution (pH 3.0). After three washing cycles of the stained cells with water, the plates were dried at room temperature. The dye was dissolved by adding 100 microL/measuring point of a 10% acetic acid solution. The extinction was determined by photometry at a wavelength of 595 nm. The change of cell number, in percent, was calculated by normalization of the measured values to the extinction values of the zero-point plate (=0%) and the extinction of the untreated (0 μM) cells (=100%). The IC50 values (inhibitory concentration at 50% of maximal effect) were determined by means of a 4 parameter fit.

[2] = target: T1, CDK12 (nuclear staining in CAL-120 cells) (Homo sapiens, UniProt Q9NYV4); assay: CDK12 nuclear protein level: immunofluorescence/high content analysis (CAL-120); type: cell-based; settings: for DC50: CAL-120 cells, 24 h, immunofluorescence, 50% reduction of nuclear CDK12 staining intensity, median, read-out: CDK12 degradation IF, DC50- [mol/l] (median); for (IC50 CDK12 high ATP) to (Degradation DC50 CDK12) ratio: ratio of IC50 CDK12 high ATP kinase assay to DC50 CDK12 degradation (IF, CAL-120)
T1 construct: endogenous in cells; host or cells: CAL-120 human breast cancer cells (DSMZ ACC 459)
Summary of the method: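 CAL-120 cells were treated with compound for 24 h at 37 °C, fixed with PFA and immunostained for CDK12. Nuclear CDK12 intensity was quantified by automated image analysis and normalized to DMSO and control. DC50 is the concentration giving 50% reduction of nuclear staining.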

T1 sequence (Q9NYV4 whole entry): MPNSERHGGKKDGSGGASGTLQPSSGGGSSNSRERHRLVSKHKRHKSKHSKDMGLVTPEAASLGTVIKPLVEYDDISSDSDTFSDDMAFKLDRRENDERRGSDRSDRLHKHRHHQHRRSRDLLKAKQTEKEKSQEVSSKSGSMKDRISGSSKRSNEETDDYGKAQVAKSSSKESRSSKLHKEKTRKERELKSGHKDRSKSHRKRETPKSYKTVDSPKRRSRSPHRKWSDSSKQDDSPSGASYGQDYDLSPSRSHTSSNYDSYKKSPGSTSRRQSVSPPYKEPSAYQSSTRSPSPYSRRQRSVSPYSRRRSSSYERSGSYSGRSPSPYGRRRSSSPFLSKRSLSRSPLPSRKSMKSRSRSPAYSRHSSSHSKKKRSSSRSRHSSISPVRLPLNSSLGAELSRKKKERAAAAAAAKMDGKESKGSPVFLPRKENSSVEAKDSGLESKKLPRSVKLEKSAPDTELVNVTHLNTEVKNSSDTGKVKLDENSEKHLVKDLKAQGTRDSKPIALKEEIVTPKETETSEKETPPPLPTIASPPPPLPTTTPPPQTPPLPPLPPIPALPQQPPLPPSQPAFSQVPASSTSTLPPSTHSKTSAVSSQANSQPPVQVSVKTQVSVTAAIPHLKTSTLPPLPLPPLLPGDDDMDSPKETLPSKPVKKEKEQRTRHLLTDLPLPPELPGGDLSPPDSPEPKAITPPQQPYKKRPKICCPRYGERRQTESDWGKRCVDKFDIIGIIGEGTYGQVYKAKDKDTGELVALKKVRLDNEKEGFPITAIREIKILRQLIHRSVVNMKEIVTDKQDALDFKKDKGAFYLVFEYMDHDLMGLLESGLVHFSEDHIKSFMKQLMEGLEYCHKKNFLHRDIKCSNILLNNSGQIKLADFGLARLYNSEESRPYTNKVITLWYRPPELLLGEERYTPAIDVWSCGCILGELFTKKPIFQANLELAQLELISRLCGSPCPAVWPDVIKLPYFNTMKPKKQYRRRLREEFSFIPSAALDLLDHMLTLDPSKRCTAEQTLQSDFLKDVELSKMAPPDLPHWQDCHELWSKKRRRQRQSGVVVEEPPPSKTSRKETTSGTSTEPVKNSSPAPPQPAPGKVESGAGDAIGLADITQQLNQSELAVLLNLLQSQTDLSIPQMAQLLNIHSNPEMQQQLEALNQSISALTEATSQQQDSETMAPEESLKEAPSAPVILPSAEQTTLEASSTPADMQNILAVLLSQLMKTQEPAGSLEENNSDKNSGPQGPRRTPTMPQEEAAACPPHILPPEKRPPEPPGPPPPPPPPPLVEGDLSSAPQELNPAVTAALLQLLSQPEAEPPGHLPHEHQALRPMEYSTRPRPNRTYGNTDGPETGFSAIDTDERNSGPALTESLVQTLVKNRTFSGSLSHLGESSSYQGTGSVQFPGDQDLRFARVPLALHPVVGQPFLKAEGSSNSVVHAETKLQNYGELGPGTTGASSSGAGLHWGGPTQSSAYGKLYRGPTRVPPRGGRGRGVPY
T1 sequence (O75909 whole entry partner): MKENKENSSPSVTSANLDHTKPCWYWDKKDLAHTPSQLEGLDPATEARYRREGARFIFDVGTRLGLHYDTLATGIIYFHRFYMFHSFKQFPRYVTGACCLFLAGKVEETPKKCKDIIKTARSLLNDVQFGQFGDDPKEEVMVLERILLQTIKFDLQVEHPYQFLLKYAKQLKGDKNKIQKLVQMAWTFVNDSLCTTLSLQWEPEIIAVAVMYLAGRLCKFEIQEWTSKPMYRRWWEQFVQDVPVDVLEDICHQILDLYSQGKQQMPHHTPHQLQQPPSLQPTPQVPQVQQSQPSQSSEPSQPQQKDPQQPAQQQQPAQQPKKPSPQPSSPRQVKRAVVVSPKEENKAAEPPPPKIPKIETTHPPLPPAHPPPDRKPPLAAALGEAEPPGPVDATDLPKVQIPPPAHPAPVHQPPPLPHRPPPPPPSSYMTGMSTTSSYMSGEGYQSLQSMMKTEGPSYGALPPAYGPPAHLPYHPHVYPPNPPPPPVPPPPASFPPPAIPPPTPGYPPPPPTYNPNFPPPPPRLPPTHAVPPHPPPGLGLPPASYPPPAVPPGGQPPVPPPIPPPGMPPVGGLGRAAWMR

In the case of `Fc1cccc(-c2nnc(CNc3nc(N4CCNCC4)nc4c(Br)cnn34)[nH]2)c1` [Example 152, 8-bromo-N-{[5-(3-fluorophenyl)-4H-1,2,4-triazol-3-yl]methyl}-2-(piperazin-1-yl)pyrazolo[1,5-a][1,3,5]triazin-4-amine], the IC50 [1] is reported as 12.7 nM, the DC50 [2] is reported as 12.7 nM and the “(IC50 CDK12 high ATP) to (Degradation DC50 CDK12) ratio” value [2] is reported as 236.

With `COc1ccc2[nH]c(CNc3nc(N4CCN(C)CC4)nc4c(Br)cnn34)nc2c1` [Example 161, 8-bromo-N-[(5-methoxy-1H-benzimidazol-2-yl)methyl]-2-(4-methylpiperazin-1-yl)pyrazolo[1,5-a][1,3,5]triazin-4-amine] the IC50 [1] was 11.3 nM, the DC50 [2] was 0.856 nM and the “(IC50 CDK12 high ATP) to (Degradation DC50 CDK12) ratio” value [2] was 11233.

For `Cc1ccc2[nH]c(CNc3nc(N4CCOCC4)nc4c(Br)cnn34)nc2c1` [Example 157, 8-bromo-N-[(5-methyl-1H-benzimidazol-2-yl)methyl]-2-(morpholin-4-yl)pyrazolo[1,5-a][1,3,5]triazin-4-amine], the IC50 [1] was 4.79 nM, the DC50 [2] was 0.62 nM and the “(IC50 CDK12 high ATP) to (Degradation DC50 CDK12) ratio” value [2] was 1089.

In the case of `C[C@@H]1CN(c2nc(NCc3nc4ccccc4[nH]3)n3ncc(Br)c3n2)C[C@H](C)N1` [Example 142, N-(1H-benzimidazol-2-ylmethyl)-8-bromo-2-[(3R,5S)-3,5-dimethylpiperazin-1-yl]pyrazolo[1,5-a][1,3,5]triazin-4-amine], the IC50 [1] is reported as 23.7 nM, the DC50 [2] is reported as 1.62 nM and the “(IC50 CDK12 high ATP) to (Degradation DC50 CDK12) ratio” value [2] is reported as 6679.

`CN1CCN(c2nc(NCc3nc4ccccc4[nH]3)n3ncc(Br)c3n2)CC1=O` [Example 131, 4-(4-{[(1H-benzimidazol-2-yl)methyl]amino}-8-bromopyrazolo[1,5-a][1,3,5]triazin-2-yl)-1-methylpiperazin-2-one] was tested, and the IC50 [1] was 682 nM, the DC50 [2] was 122 nM and the “(IC50 CDK12 high ATP) to (Degradation DC50 CDK12) ratio” value [2] was 91.

With `Cc1cccc2[nH]c(CNc3nc(N4CCOCC4)nc4c(Br)cnn34)nc12` [Example 150, 8-bromo-N-[(4-methyl-1H-benzimidazol-2-yl)methyl]-2-(morpholin-4-yl)pyrazolo[1,5-a][1,3,5]triazin-4-amine] the IC50 [1] was 38.9 nM, the DC50 [2] was 1.31 nM and the “(IC50 CDK12 high ATP) to (Degradation DC50 CDK12) ratio” value [2] was 2033.

For `CN1CCN(c2nc(NCc3nc4c(F)c(F)ccc4[nH]3)n3ncc(C4CC4)c3n2)CC1` [Example 159, 8-cyclopropyl-N-[(4,5-difluoro-1H-benzimidazol-2-yl)methyl]-2-(4-methylpiperazin-1-yl)pyrazolo[1,5-a][1,3,5]triazin-4-amine], the IC50 [1] was 9.25 nM, the DC50 [2] was 0.521 nM and the “(IC50 CDK12 high ATP) to (Degradation DC50 CDK12) ratio” value [2] was 18457.

In the case of `CC(C)c1cnn2c(NCc3nc4ccccc4[nH]3)nc(N3CC4(COC4)C3)nc12` [Example 9, N-[(1H-benzimidazol-2-yl)methyl]-2-(2-oxa-6-azaspiro[3.3]heptan-6-yl)-8-(propan-2-yl)pyrazolo[1,5-a][1,3,5]triazin-4-amine], the IC50 [1] is reported as 1180 nM, the DC50 [2] is reported as 80.9 nM and the “(IC50 CDK12 high ATP) to (Degradation DC50 CDK12) ratio” value [2] is reported as greater than 247.

For `CC(C)c1cnn2c(NCc3nc4ccccc4[nH]3)nc(NCC(C)(C)O)nc12` [Example 10, 1-{[4-{[(1H-benzimidazol-2-yl)methyl]amino}-8-(propan-2-yl)pyrazolo[1,5-a][1,3,5]triazin-2-yl]amino}-2-methylpropan-2-ol], the IC50 [1] was 79.9 nM, the DC50 [2] was 6.85 nM and the “(IC50 CDK12 high ATP) to (Degradation DC50 CDK12) ratio” value [2] was 1277.

In the case of `C[C@@H]1CN(c2nc(NCc3nc4ccccc4[nH]3)n3ncc(Br)c3n2)C[C@H](C)N1C` [Example 129, N-(1H-benzimidazol-2-ylmethyl)-8-bromo-2-[(3R,5S)-3,4,5-trimethylpiperazin-1-yl]pyrazolo[1,5-a][1,3,5]triazin-4-amine], the IC50 [1] is reported as 132 nM, the DC50 [2] is reported as 4.98 nM and the “(IC50 CDK12 high ATP) to (Degradation DC50 CDK12) ratio” value [2] is reported as greater than 3658.

`CC(C)c1cnn2c(NCc3nc4ccccc4[nH]3)nc(N3CCOC[C@@H]3C)nc12` [Example 6, N-[(1H-benzimidazol-2-yl)methyl]-2-[(3S)-3-methylmorpholin-4-yl]-8-(propan-2-yl)pyrazolo[1,5-a][1,3,5]triazin-4-amine] was tested, and the IC50 [1] was 16.1 nM, the DC50 [2] was 3.32 nM and the “(IC50 CDK12 high ATP) to (Degradation DC50 CDK12) ratio” value [2] was 537.

`OCC1CCN1c1nc(NCc2nc3ccccc3[nH]2)n2ncc(Br)c2n1` (stereo not drawn) [Example 147, [1-[4-(1H-benzimidazol-2-ylmethylamino)-8-bromo-pyrazolo[1,5-a][1,3,5]triazin-2-yl]azetidin-2-yl]methanol] was tested, and the IC50 [1] was 317 nM, the DC50 [2] was 13.9 nM and the “(IC50 CDK12 high ATP) to (Degradation DC50 CDK12) ratio” value [2] was 359.

With `Brc1cnn2c(NCc3nc4ccccc4[nH]3)nc(N3CCN(C4CC4)CC3)nc12` [Example 138, N-[(1H-benzimidazol-2-yl)methyl]-8-bromo-2-(4-cyclopropylpiperazin-1-yl)pyrazolo[1,5-a][1,3,5]triazin-4-amine] the IC50 [1] was 556 nM, the DC50 [2] was 76 nM and the “(IC50 CDK12 high ATP) to (Degradation DC50 CDK12) ratio” value [2] was greater than 263.

In the case of `C[C@H]1CCCCN1c1nc(NCc2nc3ccccc3[nH]2)n2ncc(Br)c2n1` [Example 141, N-[(1H-benzimidazol-2-yl)methyl]-8-bromo-2-[(2S)-2-methylpiperidin-1-yl]pyrazolo[1,5-a][1,3,5]triazin-4-amine], the IC50 [1] is reported as 37.8 nM, the DC50 [2] is reported as 6.11 nM and the “(IC50 CDK12 high ATP) to (Degradation DC50 CDK12) ratio” value [2] is reported as 214.

In the case of `C[C@@H]1CN(c2nc(NCc3nnc(-c4ccccc4)[nH]3)n3ncc(Br)c3n2)C[C@H](C)N1` [Example 127, 8-bromo-2-[(3R,5S)-3,5-dimethylpiperazin-1-yl]-N-[(5-phenyl-4H-1,2,4-triazol-3-yl)methyl]pyrazolo[1,5-a][1,3,5]triazin-4-amine], the IC50 [1] is reported as 32.5 nM, the DC50 [2] is reported as 5.1 nM and the “(IC50 CDK12 high ATP) to (Degradation DC50 CDK12) ratio” value [2] is reported as 1905.

For `CN1CCN(c2nc(NCc3nc4c(F)cccc4[nH]3)n3ncc(C4CC4)c3n2)CC1` [Example 165, 8-cyclopropyl-N-[(4-fluoro-1H-benzimidazol-2-yl)methyl]-2-(4-methylpiperazin-1-yl)pyrazolo[1,5-a][1,3,5]triazin-4-amine], the IC50 [1] was 95 nM, the DC50 [2] was 0.405 nM and the “(IC50 CDK12 high ATP) to (Degradation DC50 CDK12) ratio” value [2] was 25224.

With `CC1CN(C)CCN1c1nc(NCc2nc3ccccc3[nH]2)n2ncc(Br)c2n1` (stereo not drawn) [Example 156, N-(1H-benzimidazol-2-ylmethyl)-8-bromo-2-(2,4-dimethylpiperazin-1-yl)pyrazolo[1,5-a][1,3,5]triazin-4-amine] the IC50 [1] was 20.5 nM, the DC50 [2] was 1.06 nM and the “(IC50 CDK12 high ATP) to (Degradation DC50 CDK12) ratio” value [2] was 8849.

In the case of `Cc1ccc2[nH]c(CNc3nc(N4CCN(C)CC4)nc4c(Br)cnn34)nc2c1` [Example 158, 8-bromo-N-[(5-methyl-1H-benzimidazol-2-yl)methyl]-2-(4-methylpiperazin-1-yl)pyrazolo[1,5-a][1,3,5]triazin-4-amine], the IC50 [1] is reported as 4.24 nM, the DC50 [2] is reported as 0.536 nM and the “(IC50 CDK12 high ATP) to (Degradation DC50 CDK12) ratio” value [2] is reported as 8313.

In the case of `Fc1cccc(-c2nnc(CNc3nc(N4C[C@H]5C[C@@H]4CO5)nc4c(Br)cnn34)[nH]2)c1` [Example 153, 8-bromo-N-{[5-(3-fluorophenyl)-4H-1,2,4-triazol-3-yl]methyl}-2-[(1R,4R)-2-oxa-5-azabicyclo[2.2.1]heptan-5-yl]pyrazolo[1,5-a][1,3,5]triazin-4-amine], the IC50 [1] is reported as 24.4 nM, the DC50 [2] is reported as 2.58 nM and the “(IC50 CDK12 high ATP) to (Degradation DC50 CDK12) ratio” value [2] is reported as 1143.

`Brc1cnn2c(NCc3nc4ccccc4[nH]3)nc(N3C[C@@H]4CCCN[C@@H]4C3)nc12` [Example 146, N-[(1H-benzimidazol-2-yl)methyl]-8-bromo-2-[(4aS,7aS)-octahydro-6H-pyrrolo[3,4-b]pyridin-6-yl]pyrazolo[1,5-a][1,3,5]triazin-4-amine] was tested, and the IC50 [1] was 43.3 nM, the DC50 [2] was 3.82 nM and the “(IC50 CDK12 high ATP) to (Degradation DC50 CDK12) ratio” value [2] was 2320.

With `FC(F)(F)CN1CCN(c2nc(NCc3nc4ccccc4[nH]3)n3ncc(Br)c3n2)CC1` [Example 139, N-[(1H-benzimidazol-2-yl)methyl]-8-bromo-2-[4-(2,2,2-trifluoroethyl)piperazin-1-yl]pyrazolo[1,5-a][1,3,5]triazin-4-amine] the IC50 [1] was 539 nM, the DC50 [2] was 110 nM and the “(IC50 CDK12 high ATP) to (Degradation DC50 CDK12) ratio” value [2] was 140.

From US20230117034A1, “PYRAZOLOTRIAZINES” (Bayer Aktiengesellschaft, priority 2019, published 2023)
